Test results as given in patent publication US10179914B2, “CDC25A inhibitor for the treatment of drug resistant cancer or for the prevention of tumor relapse” (INSERM (INSTITUT NATIONAL DE LA SANTÉ ET DE LA RECHERCHE …, priority 2014, dated 2019).

What was measured:
[1] = system: C/EBPα Ser21 phosphorylation, c-myc, C/EBPε; experiment: Western blot of differentiation markers in MOLM-14; format: cell-based, human; details: MOLM-14, 100 nM
Protocol: (§1) (a-b) MOLM-14 and MV4-11 cells were treated for different times with IRC-083864 (100 nM and 200 nM) and the expression of the cell surface markers CD11b, CD14 and CD15 were followed by flow cytometry analysis. (c) MOLM-14 and MV4-11 cells were treated for different times with IRC-083864 (100 nM) and morphological changes were estimated by microscopy after cells were cytospun and stained at days 8 and 13. Original magnification ×100. (d) MOLM-14 cells were treated for different times with IRC-083864 (100 nM) and c-myc expression as well as C/EBPα phosphorylation on serine 21 were analyzed by western blot at day 1, and C/EBPε expression after 6 days of treatment. (e) MOLM-14 cells were transfected with CDC25A shRNA The expression of the cell surface markers CD11b, CD14 and CD15 were followed by flow cytometry analysis at day 3 and 6 (upper panel), and their morphology was analyzed by microscopy after 6 days (lower panel). Original magnification ×100. (f) MOLM-14 cells were transfected with CDC25A siRNA, and their morphology was analyzed by microscopy after 3 days (upper panel). Original magnification ×100. The efficiency of CDC25A siRNA was assessed by western blot analysis (lower panel).
Western blot. 2×10^6 cells were usually lysed in 100 μL of NuPAGE® LDS Sample Buffer (Novex, Life Technologies, Carlsbad, Calif., USA), sonicated for 15 seconds, and boiled for 3 minutes. Proteins were then resolved on NuPAGE® 4-12% Bis-Tris Gels and transferred to nitrocellulose membrane. Saturation of the membrane was done for 1 hour in Tris Buffer Saline with Tween 0.1% (TBS-T) containing 5% non-fat milk or 5% bovine serum albumin. Membranes were blotted with proper antibodies overnight at 4° C., washed thrice with TBS-T, and incubated for 30 minutes with HRP-conjugated secondary antibody (Promega, Madison, Wis., USA). […]

HCT-116 tumor spheroids = details: by induction of p21 and apoptosis; cited from earlier work
MOLM-14 and MV4-11 cells = experiment: Differentiation of FLT3-ITD AML cell lines (surface markers, morphology); format: cell-based, human
Protocol: as §1
Lentiviral infections. To generate lentiviral vectors expressing CDC25A protein, sequences were cloned into the pTrip-TAL-Ires-GFP lentiviral vector. We used 293-T packaging cells, co-transfected with lentiviral protein (GAG, POL, and ENV) encoding plasmids, and plasmids containing a control or CDC25A genes, separately. Supernatants containing lentivirus were collected 48 h after transfection, during 3 consecutive days. MOLM-14 cells were plated at 5×10^5 cells in 200 μl in serum-free medium and 5 μl of lentiviral supernatant was added during 3 h. Cells were then grown in 10% FBS RPMI medium.
Flow cytometry. Apoptotic cells were detected with Annexin V-FITC detection kit from BD Pharmingen (San Diego, Calif., USA) according to the manufacturer instructions. To evaluate AML cell differentiation, cells were stained for 30 min with the following anti-human monoclonal antibodies: CD11b-PE (Beckman Coulter), CD14-FITC (BD Biosciences), CD15-APC (BD Biosciences). For patient samples, additional hCD45-APC-H7 (BD Biosciences), Annexin V-Pacific Blue (BioLegend, San Diego, Calif., USA) and 7-AAD (Sigma) were used; and for bone marrow mice cells, additional CD33-FITC, CD44-PE Cy7, mCD45-PerCP Cy 5.5, CD14-Alexa 700 were used. Data were collected on a LSRII or a LSRFortessa cytometer (BD Biosciences), and analyzed with FlowJo software. A minimum of 10,000 events was collected.
Morphological examination. […] were spun at 500 rpm for 5 minutes onto glass slides and May-Grünwald-Giemsa stained at the Toulouse University Hospital hematology laboratory.

[2] = system: FLT3-ITD positive primary AML cells; experiment: Clonogenic assay, FLT3-ITD positive primary AML cells; format: cell-based, human; details: 100 and 200 nM, day 7, semi-solid 5637 conditioned medium
Protocol: (c) Primary cells from patients were cultured in semi-solid medium to estimate their clonogenic potential as described in the Methods section, in the presence or the absence of IRC-083864 (100 and 200 nM). 6 FLT3-ITD positive (upper panel) and 4 FLT3-wild type (lower panel) AML primary samples were used for these experiments. Leukemic colonies were scored under an inverted microscope at day 7.
Patient samples. Patient AML samples were obtained after informed consent in accordance with the Declaration of Helsinki and stored at the HIMIP collection. According to the French law, HIMIP collection has been declared to the Ministry of Higher Education and Research (DC 2008-307 collection 1) and obtained a transfer agreement (AC 2008-129) after approbation by ethical committees (Comité de Protection des Personnes Sud-Ouest et Outremer II and APHP ethical committee). Clinical and biological annotations of the samples have been declared to the CNIL (Comité National Informatique et Libertés i.e. Data processing and Liberties National Committee). Frozen cells were thawed in IMDM medium with 20% FBS and immediately processed for treatment. All patients were diagnosed at the Department of Hematology of Toulouse University Hospital.
Clonogenic assay. […] Leukemic colonies were then scored under an inverted microscope.

Cc1nc2c(s1)C(=O)C=C(NCCCN(C)CCCNC1=CC(=O)c3nc(-c4cc(F)ccc4F)oc3C1=O)C2=O [IRC-083864]
C/EBPα phosphorylation on serine 21 ([1]; day 1): dephosphorylation
c-myc expression ([1]; day 1): down-regulation
C/EBPε expression ([1]; day 6): up-regulation
growth of HCT-116 tumor spheroids (HCT-116 tumor spheroids): inhibits the growth
expression of CD11b (MOLM-14 and MV4-11 cells; 100 nM and 200 nM, as early as two days): induced in a dose dependent manner
morphological analysis (MOLM-14 and MV4-11 cells; 100 nM, 8 and 13 days): monocytic-like nuclear changes
expression of CD15 (MOLM-14 and MV4-11 cells; after 8 days): either decreased or did not change significantly
expression of monocytic marker CD14 (MOLM-14 and MV4-11 cells; after 8 days, both cell lines): increased
clonogenic potential of FLT3-ITD positive primary cells [2]: significantly reduced
